# Source: patent US20070128217A1 (priority 2003, published 2007)
# How the values were obtained:
# [1] = tested on: antibodies in sera from SARS patients (sera 1a, 1b, 2, 6, 37, 62, London, SARS-yellow, SARS-green); assay type: binding, human; parameters: Binding of serum 6 to linear peptides of protein X1 of SARS-CoV Urbani / Binding of serum 37 to linear peptides of protein X1 of SARS-CoV Urbani / Binding of serum 6 to looped/cyclic peptide (PEPSCAN-ELISA) / Binding of serum 37 to looped/cyclic peptide (PEPSCAN-ELISA) / Binding of serum 37 to looped/cyclic peptides of protein X1 of SARS-CoV Urbani / Binding of serum 6 to linear peptides of protein X2 / Binding of serum 37 to linear peptides of protein X2 / Binding of serum 37 to looped/cyclic peptides of protein X2 of SARS-CoV Urbani / Binding of serum 6 to linear peptides of protein M of SARS-CoV Urbani / Binding of serum 37 to linear peptides of protein M of SARS-CoV Urbani / Binding of serum 6 to looped/cyclic peptides of protein M of SARS-CoV Urbani / Binding of serum 37 to looped/cyclic peptides of protein M of SARS-CoV Urbani / Binding of serum 6 to linear peptides of protein X3 of SARS-CoV Urbani / Binding of serum 37 to linear peptides of protein X3 of SARS-CoV Urbani / Binding of serum 37 to looped/cyclic peptides of protein X3 of SARS-CoV Urbani / Binding of serum 6 to linear peptides of protein X4 of SARS-CoV Urbani / Binding of serum 37 to linear peptides of protein X4 of SARS-CoV Urbani / Binding of serum 37 to looped/cyclic peptides of protein X4 of SARS-CoV Urbani / Binding of serum 6 to linear peptides of protein X5 of SARS-CoV Urbani / Binding of serum 37 to linear peptides of protein X5 of SARS-CoV Urbani / Binding of serum 37 to looped/cyclic peptides of protein X5 of SARS-CoV Urbani / Binding of serum 6 to linear peptides of protein N of SARS-CoV Urbani / Binding of serum 37 to linear peptides of protein N of SARS-CoV Urbani / Binding of serum 6 to linear peptide (PEPSCAN-ELISA) / Binding of serum 1a to looped/cyclic peptides of protein N of SARS-CoV Urbani / Binding of serum 1b to looped/cyclic peptides of protein N of SARS-CoV Urbani / Binding of serum 2 to looped/cyclic peptides of protein N of SARS-CoV Urbani / Binding of serum 6 to looped/cyclic peptides of protein N of SARS-CoV Urbani / Binding of serum 37 to looped/cyclic peptides of protein N of SARS-CoV Urbani / Binding of serum 62 to looped/cyclic peptides of protein N of SARS-CoV Urbani / Binding of serum London to looped/cyclic peptides of protein N of SARS-CoV Urbani / Binding of serum SARS-green to looped/cyclic peptides of protein N of SARS-CoV Urbani: unit not given here
# [2] = tested on: control sera (pooled serum of ten healthy LUMC hospital workers; commercial negative donor pooled serum from the Dutch bloodbank); assay type: binding, human; parameters: Binding of Control serum LUMC to linear peptides / Binding of Control serum Blood-bank to linear peptides / Binding of Control serum LUMC to looped peptides / Binding of Control Serum Blood-Bank to Looped peptides / Binding of Control serum LUMC to linear peptides of the protein M of SARS-CoV Urbani / Binding of Control serum Blood-bank to linear peptides of the protein M of SARS-CoV Urbani / Binding of Control serum LUMC to looped peptides of the protein M of SARS-CoV Urbani / Binding of Control Serum Blood-Bank to Looped peptides of the protein M of SARS-CoV Urbani: unit not given here
# [3] = tested on: rabbit serum obtained by immunizing a rabbit with the SARS-CoV strain Frankfurt 1; assay type: binding; parameters: Binding of a rabbit serum to linear peptides / Binding of a rabbit serum to looped peptides / Rabbit serum linear peptides / Rabbit serum looped peptides / Binding of a rabbit serum to linear peptides of protein N of SARS-CoV Urbani (Rabbit serum linear peptides) / Binding of a rabbit serum to looped/cyclic peptides of protein N of SARS-CoV Urbani (Rabbit serum looped peptides): unit not given here
sequence,measurement,setting,value
KSKNPLLYDANYFVC,Binding of serum 1a to linear peptides of protein X1 of SARS-CoV Urbani,[1],0.7
same,Binding of serum 1a to looped/cyclic peptide (PEPSCAN-ELISA),[1],0.6
same,Binding of serum 1b to linear peptides of protein X1 of SARS-CoV Urbani,[1],0.4
same,Binding of serum 1b to looped/cyclic peptide (PEPSCAN-ELISA),[1],0.5
same,Binding of serum 2 to linear peptides of protein X1 of SARS-CoV Urbani,[1],0.4
same,Binding of serum 2 to looped/cyclic peptide (PEPSCAN-ELISA),[1],0.4
same,Binding of serum 6 to linear peptides of protein X1 of SARS-CoV Urbani,[1],0.4
same,Binding of serum 6 to looped/cyclic peptide (PEPSCAN-ELISA),[1],0.3
same,Binding of serum 37 to linear peptides of protein X1 of SARS-CoV Urbani,[1],0.5
same,Binding of serum 37 to looped/cyclic peptide (PEPSCAN-ELISA),[1],0.6
same,Binding of serum 62 to linear peptides of protein X1 of SARS-CoV Urbani,[1],0.4
same,Binding of serum 62 to looped/cyclic peptide (PEPSCAN-ELISA),[1],0.6
same,Binding of serum London to linear peptides of protein X1 of SARS-CoV Urbani,[1],0.2
same,Binding of serum London to looped/cyclic peptide (PEPSCAN-ELISA),[1],0.2
same,Binding of serum SARS-green to linear peptides of protein X1 of SARS-CoV Urbani,[1],0.2
same,Binding of serum SARS-green to looped/cyclic peptide (PEPSCAN-ELISA),[1],0.4
same,Binding of serum SARS-yellow to linear peptides of protein X1 of SARS-CoV Urbani,[1],0.3
same,Binding of serum SARS-yellow to looped/cyclic peptide (PEPSCAN-ELISA),[1],0.4
same,Binding of Control Serum Blood-Bank to Looped peptides,[2],0.5
same,Binding of Control serum Blood-bank to linear peptides,[2],0.3
same,Binding of Control serum LUMC to linear peptides,[2],0.7
same,Binding of Control serum LUMC to looped peptides,[2],0.6
same,Binding of a rabbit serum to linear peptides,[3],0.1
same,Binding of a rabbit serum to looped peptides,[3],0.6
LAAVYRINWVTGGIA,Binding of serum 1a to linear peptides of protein M of SARS-CoV Urbani,[1],0.7
same,Binding of serum 1a to looped/cyclic peptides of protein M of SARS-CoV Urbani,[1],0.8
same,Binding of serum 1b to linear peptides of protein M of SARS-CoV Urbani,[1],0.5
same,Binding of serum 1b to looped/cyclic peptides of protein M of SARS-CoV Urbani,[1],0.2
same,Binding of serum 2 to linear peptides of protein M of SARS-CoV Urbani,[1],0.6
same,Binding of serum 2 to looped/cyclic peptides of protein M of SARS-CoV Urbani,[1],0.5
same,Binding of serum 6 to linear peptides of protein M of SARS-CoV Urbani,[1],0.3
same,Binding of serum 6 to looped/cyclic peptides of protein M of SARS-CoV Urbani,[1],0.7
same,Binding of serum 37 to linear peptides of protein M of SARS-CoV Urbani,[1],0.8
same,Binding of serum 37 to looped/cyclic peptides of protein M of SARS-CoV Urbani,[1],0.5
same,Binding of serum 62 to linear peptides of protein M of SARS-CoV Urbani,[1],0.9
same,Binding of serum 62 to looped/cyclic peptides of protein M of SARS-CoV Urbani,[1],0.5
same,Binding of serum London to linear peptides of protein M of SARS-CoV Urbani,[1],0.3
same,Binding of serum London to looped/cyclic peptides of protein M of SARS-CoV Urbani,[1],0.2
same,Binding of serum SARS-green to linear peptides of protein M of SARS-CoV Urbani,[1],0.3
same,Binding of serum SARS-green to looped/cyclic peptides of protein M of SARS-CoV Urbani,[1],0.3
same,Binding of serum SARS-yellow to linear peptides of protein M of SARS-CoV Urbani,[1],0.1
same,Binding of serum SARS-yellow to looped/cyclic peptides of protein M of SARS-CoV Urbani,[1],0.3
same,Binding of Control Serum Blood-Bank to Looped peptides of the protein M of SARS-CoV Urbani,[2],0.4
same,Binding of Control serum Blood-bank to linear peptides of the protein M of SARS-CoV Urbani,[2],0.6
same,Binding of Control serum LUMC to linear peptides of the protein M of SARS-CoV Urbani,[2],0.5
same,Binding of Control serum LUMC to looped peptides of the protein M of SARS-CoV Urbani,[2],0.6
same,Rabbit serum linear peptides,[3],0.4
same,Rabbit serum looped peptides,[3],0.0
LAWIMLLQFAYSNRN,Binding of serum 1a to linear peptides of protein M of SARS-CoV Urbani,[1],0.6
same,Binding of serum 1a to looped/cyclic peptides of protein M of SARS-CoV Urbani,[1],0.7
same,Binding of serum 1b to linear peptides of protein M of SARS-CoV Urbani,[1],0.5
same,Binding of serum 1b to looped/cyclic peptides of protein M of SARS-CoV Urbani,[1],0.7
same,Binding of serum 2 to linear peptides of protein M of SARS-CoV Urbani,[1],0.4
same,Binding of serum 2 to looped/cyclic peptides of protein M of SARS-CoV Urbani,[1],0.4
same,Binding of serum 6 to linear peptides of protein M of SARS-CoV Urbani,[1],0.2
same,Binding of serum 6 to looped/cyclic peptides of protein M of SARS-CoV Urbani,[1],0.7
same,Binding of serum 37 to linear peptides of protein M of SARS-CoV Urbani,[1],0.7
same,Binding of serum 37 to looped/cyclic peptides of protein M of SARS-CoV Urbani,[1],0.6
same,Binding of serum 62 to linear peptides of protein M of SARS-CoV Urbani,[1],0.7
same,Binding of serum 62 to looped/cyclic peptides of protein M of SARS-CoV Urbani,[1],0.6
same,Binding of serum London to linear peptides of protein M of SARS-CoV Urbani,[1],0.2
same,Binding of serum London to looped/cyclic peptides of protein M of SARS-CoV Urbani,[1],0.2
same,Binding of serum SARS-green to linear peptides of protein M of SARS-CoV Urbani,[1],0.3
same,Binding of serum SARS-green to looped/cyclic peptides of protein M of SARS-CoV Urbani,[1],0.4
same,Binding of serum SARS-yellow to linear peptides of protein M of SARS-CoV Urbani,[1],0.0
same,Binding of serum SARS-yellow to looped/cyclic peptides of protein M of SARS-CoV Urbani,[1],0.3
same,Binding of Control Serum Blood-Bank to Looped peptides of the protein M of SARS-CoV Urbani,[2],0.6
same,Binding of Control serum Blood-bank to linear peptides of the protein M of SARS-CoV Urbani,[2],0.6
same,Binding of Control serum LUMC to linear peptides of the protein M of SARS-CoV Urbani,[2],0.2
same,Binding of Control serum LUMC to looped peptides of the protein M of SARS-CoV Urbani,[2],0.6
same,Rabbit serum linear peptides,[3],0.8
same,Rabbit serum looped peptides,[3],0.1
